Experimental data as given in US20110311657A1, “Use of a Neuroprotective Extract and Pharmaceutical Preparation Thereof” (Universiti Putra Malaysia, priority 2009, published 2011).

What was measured:
Format in all cases: in vivo, rat
[1] = system: brain malondialdehyde (MDA); assay: Brain malondialdehyde (MDA) concentrations in normal and NO deficient rats; conditions: normal rats, FIG. 2d
[2] = system: brain catalase; assay: Brain catalase in normal and NO deficient rats; conditions: normal rats, FIG. 2c
[3] = system: hippocampal CA1 pyramidal cells; assay: Neuron viability in hippocampal CA1 of normal and nitric oxide (NO) deficient rats; conditions: for viable pyramidal cells in CA1: nitric oxide (NO) deficient rats, 12-week L-NAME administration, FIG. 1a
Description: (§1) Neuroprotective activities of polyphenol-rich palm leaves extract and captopril were evaluated in normal and nitric oxide (NO) deficient rats by assessing neuron viability of three subfields in the hippocampus; CA1. CA3 and DG. […] CA3 and DG of the hippocampus, and that co-administration with palm leaves extract attenuated this effect more effectively than with captopril. The pronounced loss of neurons with L-NAME administration caused the impairment in acquisition, but not retention, of spatial memory in the radial-arm maze task and the Morris water maze task. The neuroprotective effect of palm leaves extract was not significant in normal adult rats where loss of neurons have not occurred.

[4] = system: hippocampal CA3 pyramidal cells; assay: Neuron viability in hippocampal CA3 of normal and nitric oxide (NO) deficient rats; conditions: nitric oxide (NO) deficient rats, 12-week L-NAME administration; FIG. 1b
Description: as §1, with “DG. […] No significant difference in viability was observed between all 3 groups of normal rats.” for “DG.”

[5] = system: brain superoxide dismutase (SOD); assay: Brain superoxide dismutase (SOD) activities in normal and NO deficient rats
[6] = system: hippocampal dentate gyrus (DG) granule cells; assay: Neuron viability in hippocampal dentate gyrus of normal and nitric oxide (NO) deficient rats; conditions: nitric oxide (NO) deficient rats, 12-week L-NAME administration; FIG. 1c
Description: as §1, with “DG. […] The viability values of all 3 normal groups were similar.” for “DG.”

SMILES: C[C@H](CS)C(=O)N1CCC[C@H]1C(=O)O [captopril]
- malondialdehyde (MDA) level [1]: maintaining
- catalase activity compared to control [2]: depleted significantly
- viable pyramidal cells in CA1 [3]: partial neuroprotection
- viable pyramidal cell count in CA1 compared to control ([3]; normal rats): no significant change
- CA3 pyramidal cells viability [4]: 35%
- increase of superoxide dismutase (SOD) activities compared with L-NAME treated animals ([5]; nitric oxide (NO) deficient rats, FIG. 2a): 51%
- superoxide dismutase (SOD) activity ([5]; normal rats): maintaining
- viable granule cells in dentate gyrus (DG) / neurons protected from degeneration [6]: 34%

SMILES: COC(=O)[C@@H](N)CCCNC(=N)N[N+](=O)[O-] [L-NAME]
- viable pyramidal cells in CA1 [3]: 40%
- CA3 pyramidal cells viability [4]: 15%
- superoxide dismutase (SOD) activity ([5]; L-NAME administration alone, FIG. 2a): decreased
